Data as given in patent US9096624B2 (OSI Pharmaceuticals, LLC, priority 2009, dated 2015).

Columns and labels:
FAK [1] = biological target: T1, FAK (Homo sapiens, UniProt Q05397); test: Cell-based capture ELISA for inhibition of FAK autophosphorylation [pY397] in MiaPaCa2 cells
Method: Cell-Based Assays for Inhibition of FAK Autophosphorylation: MiaPaCa2 and U87MG
ELISA kit from Invitrogen (KHO0441).
Reagents Provided in Biosource FAK [pY397]
The cells were then suspended in cell assay medium.

FAK [2] = biological target: T1, FAK; test: biochemical
[3] = MIA-PaCa2 cells on fibronectin, 2 h, no plasma, read-out: Mean FAK Cell Mechanistic IC50 MIA-PaCa2
[4] = MIA-PaCa2 cells, + 50% human plasma, read-out: Mean FAK Cell Mechanistic IC50 + 50% hP MIA-PaCa2
[5] = MIA-PaCa2 cells, + 50% mouse plasma (Table 2), read-out: Mean FAK Cell Mechanistic IC50 + 50% mP MIA-PaCa2
[6] = MIA-PaCa2 cells, + 50% mouse plasma (Table 3), read-out: Mean FAK Cell Mechanistic IC50 + 50% mP MIA-PaCa2

T1 sequence (Q05397 whole entry): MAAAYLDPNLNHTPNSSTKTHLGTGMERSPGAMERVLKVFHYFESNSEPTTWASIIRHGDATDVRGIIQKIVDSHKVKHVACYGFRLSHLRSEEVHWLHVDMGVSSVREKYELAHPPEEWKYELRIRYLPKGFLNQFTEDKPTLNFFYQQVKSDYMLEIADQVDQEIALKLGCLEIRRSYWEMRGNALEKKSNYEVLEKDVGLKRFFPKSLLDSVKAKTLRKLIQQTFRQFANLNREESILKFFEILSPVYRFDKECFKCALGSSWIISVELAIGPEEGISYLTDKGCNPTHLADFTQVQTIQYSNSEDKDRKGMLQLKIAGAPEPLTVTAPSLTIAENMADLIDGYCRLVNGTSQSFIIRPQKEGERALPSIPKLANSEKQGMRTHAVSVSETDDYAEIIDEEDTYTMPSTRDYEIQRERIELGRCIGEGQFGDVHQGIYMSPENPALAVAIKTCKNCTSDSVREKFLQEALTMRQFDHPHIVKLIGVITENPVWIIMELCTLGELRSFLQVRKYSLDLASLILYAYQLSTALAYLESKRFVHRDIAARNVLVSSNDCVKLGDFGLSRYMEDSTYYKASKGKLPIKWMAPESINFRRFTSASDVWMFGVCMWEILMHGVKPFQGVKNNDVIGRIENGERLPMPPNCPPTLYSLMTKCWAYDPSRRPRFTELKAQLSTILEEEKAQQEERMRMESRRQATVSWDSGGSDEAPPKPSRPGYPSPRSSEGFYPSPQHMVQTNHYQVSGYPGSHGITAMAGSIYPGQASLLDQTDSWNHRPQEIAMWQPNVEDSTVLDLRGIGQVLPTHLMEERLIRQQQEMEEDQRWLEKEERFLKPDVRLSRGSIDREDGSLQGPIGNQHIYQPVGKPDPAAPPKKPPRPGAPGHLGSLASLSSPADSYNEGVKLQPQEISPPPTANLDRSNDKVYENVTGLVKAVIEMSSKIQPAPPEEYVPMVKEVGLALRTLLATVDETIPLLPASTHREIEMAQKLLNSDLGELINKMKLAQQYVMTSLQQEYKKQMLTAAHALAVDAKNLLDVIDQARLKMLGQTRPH

IC50 (FAK [1]; [3]) [µM]	IC50 (FAK [1]; [4]) [µM]	IC50 (FAK [1]; [5]) [µM]	SMILES	IC50 (FAK [2]) [µM]	IC50 (FAK [1]; [6]) [µM]
1 to 10	1 to 10	1 to 10	CN(c1ncccc1CNc1nc(Nc2cccc(CP(=O)(O)O)c2)ncc1C(F)(F)F)S(C)(=O)=O [Example 43, [3-({4-[({2-[Methyl(methylsulfonyl)amino]pyridin-3-yl}methyl)amino]-5-(trifluoromethyl)pyrimidin-2-yl}amino)benzyl]phosphonic acid]	< 1	
			CCOP(=O)(Cc1ccc(Nc2ncc(C(F)(F)F)c(Nc3ccc(-c4cnn([C@H]5CC[C@H](O)CC5)c4)cc3C(=O)NC)n2)cc1)OCC [Example 137, Diethyl (4-{[4-({4-[1-(trans-4-hydroxycyclohexyl)-1H-pyrazol-4-yl]-2-(methylcarbamoyl)phenyl}amino)-5-(trifluoromethyl)pyrimidin-2-yl]amino}benzyl)phosphonate]	< 1	1 to 10
			CCOP(=O)(Cc1ccc(Nc2ncc(C(F)(F)F)c(Nc3ccccc3C(=O)NC)n2)c(Cl)c1)OCC [Example 104, Diethyl (3-chloro-4-{[4-{[2-(methylcarbamoyl)phenyl]amino}-5-(trifluoromethyl)pyrimidin-2-yl]amino}benzyl)phosphonate]	< 1	< 1
			CCOP(=O)(Cc1ccc(Nc2ncc(C(F)(F)F)c(Nc3cc(F)ccc3C(=O)NC)n2)c(OC)c1)OCC [Example 103, Diethyl (4-{[4-{[5-fluoro-2-(methylcarbamoyl)phenyl]amino}-5-(trifluoromethyl)pyrimidin-2-yl]amino}-3-methoxybenzyl)phosphonate]	< 1	< 1
			CCOP(=O)(Cc1ccc(Nc2ncc(C(F)(F)F)c(Nc3cccc4c3C(=O)N(C)C4=O)n2)c(OC)c1)OCC [Example 105, Diethyl [3-methoxy-4-({4-[(2-methyl-1,3-dioxo-2,3-dihydro-1H-isoindol-4-yl)amino]-5-(trifluoromethyl)pyrimidin-2-yl}amino)benzyl]phosphonate]	< 1	1 to 10
			CCOP(=O)(Cc1ccc(Nc2ncc(C(F)(F)F)c(Nc3ccc(N4CC(O)C4)c4c3C(=O)N(C)C4)n2)c(OC)c1)OCC [Example 229, Diethyl (4-{[4-{[7-(3-hydroxyazetidin-1-yl)-2-methyl-3-oxo-2,3-dihydro-1H-isoindol-4-yl]amino}-5-(trifluoromethyl)pyrimidin-2-yl]amino}-3-methoxybenzyl)phosphonate]	< 1	< 1
			CCOP(=O)(Cc1ccc(Nc2ncc(C(F)(F)F)c(Nc3ccc(OC)c4c3C(=O)N(C)C4)n2)c(OC)c1)OCC [Example 209, Diethyl [3-methoxy-4-({4-[(7-methoxy-2-methyl-3-oxo-2,3-dihydro-1H-isoindol-4-yl)amino]-5-(trifluoromethyl)pyrimidin-2-yl}amino)benzyl]phosphonate]	< 1	< 1
			CCOP(=O)(Cc1ccc(Nc2ncc(C(F)(F)F)c(Nc3ccc(-c4cnn(C5CC(O)C5)c4)c4c3C(=O)N(C)C4)n2)c(OC)c1)OCC (stereo not drawn) [Example 100, Diethyl (4-{[4-({7-[1-(3-hydroxycyclobutyl)-1H-pyrazol-4-yl]-2-methyl-3-oxo-2,3-dihydro-1H-isoindol-4-yl}amino)-5-(trifluoromethyl)pyrimidin-2-yl]amino}-3-methoxybenzyl)phosphonate]	< 1	< 1
			CCOc1cc(CP(=O)(OCC)OCC)ccc1Nc1ncc(C(F)(F)F)c(Nc2ccc([C@H]3CC[C@H](C(=O)O)CC3)c3c2C(=O)N(C)C3)n1 [Example 258, Trans-4-(7-{[2-({4-[(diethoxyphosphoryl)methyl]-2-ethoxyphenyl}amino)-5-(trifluoromethyl)pyrimidin-4-yl]amino}-2-methyl-1-oxo-2,3-dihydro-1H-isoindol-4-yl)cyclohexanecarboxylic acid]	< 1	< 1
		1 to 10	CCCOP(=O)(OCCC)c1cccc(Nc2ncc(C(F)(F)F)c(NCc3cccnc3N(C)S(C)(=O)=O)n2)c1 [Example 57, dipropyl [3-({4-[({2-[methyl(methylsulfonyl)amino]pyridin-3-yl}methyl)amino]-5-(trifluoromethyl)pyrimidin-2-yl}amino)phenyl]phosphonate]	< 1	
			CCCP(=O)(CCC)c1cccc(Nc2ncc(C(F)(F)F)c(Nc3ccc(-c4cnn(CCO)c4)c4c3C(=O)N(C)C4)n2)c1 [Example 168, 7-{[2-{[3-(Dipropylphosphoryl)phenyl]amino}-5-(trifluoromethyl)pyrimidin-4-yl]amino}-4-[1-(3-hydroxyethyl)-1H-pyrazol-4-yl]-2-methyl-2,3-dihydro-1H-isoindol-1-one]	< 1	< 1
1 to 10	1 to 10	1 to 10	CC(C)COP(=O)(Cc1ccc(Nc2ncc(C(F)(F)F)c(NCc3cccnc3N(C)S(C)(=O)=O)n2)cc1)OCC(C)C [Example 30, bis(2-methylpropyl) [4-({4-[({2-[methyl(methylsulfonyl)amino]pyridin-3-yl}methyl)amino]-5-(trifluoromethyl)pyrimidin-2-yl}amino)benzyl]phosphonate]	< 1	
			CCOP(=O)(Cc1ccc(Nc2ncc(C(F)(F)F)c(Nc3ccc(C(=O)N4CCCC4)c4c3C(=O)N(C)C4)n2)cc1)OCC [Example 116, Diethyl (4-{[4-{[2-methyl-3-oxo-7-(pyrrolidin-1-ylcarbonyl)-2,3-dihydro-1H-isoindol-4-yl]amino}-5-(trifluoromethyl)pyrimidin-2-yl]amino}benzyl)phosphonate]	< 1	1 to 10
			CCOP(C)(=O)Cc1ccc(Nc2ncc(C(F)(F)F)c(Nc3ccc([C@H]4CC[C@H](O)CC4)c4c3C(=O)N(C)C4)n2)c(OC)c1 (stereo partly drawn) [Example 191, Ethyl (4-{[4-{[7-(trans-4-hydroxycyclohexyl)-2-methyl-3-oxo-2,3-dihydro-1H-isoindol-4-yl]amino}-5-(trifluoromethyl)pyrimidin-2-yl]amino}-3-methoxybenzyl) methylphosphinate]	< 1	< 1
< 1	< 1	< 1	CN(c1ncccc1CNc1nc(Nc2cccc(P(C)(C)=O)c2)ncc1C(F)(F)F)S(C)(=O)=O [Example 15, N-[3-({[2-{[3-(Dimethylphosphoryl)phenyl]amino}-5-(trifluoromethyl)pyrimidin-4-yl]amino}methyl)pyridin-2-yl]-N-methylmethanesulfonamide]	< 1	
			CNC(=O)c1ccccc1Nc1nc(Nc2ccc(CP(=O)(OCCO)OCCO)cc2OC)ncc1C(F)(F)F [Example 113, Bis(2-hydroxyethyl)(3-methoxy-4-{[4-{[2-(methylcarbamoyl)phenyl]amino}-5-(trifluoromethyl)pyrimidin-2-yl]amino}benzyl)phosphonate]	< 1	< 1
			CCOP(=O)(Cc1ccc(Nc2ncc(C(F)(F)F)c(Nc3ccc([C@H]4CC[C@@](C)(O)CC4)c4c3C(=O)N(C)C4)n2)c(OC)c1)OCC [Example 197, Diethyl (4-{[4-{[7-(cis-4-hydroxy-4-methylcyclohexyl)-2-methyl-3-oxo-2,3-dihydro-1H-isoindol-4-yl]amino}-5-(trifluoromethyl)pyrimidin-2-yl]amino}-3-methoxybenzyl)phosphonate]	< 1	< 1
		1 to 10	CC(C)OP(=O)(OC(C)C)c1cccc(Nc2ncc(C(F)(F)F)c(NCc3cccnc3N(C)S(C)(=O)=O)n2)c1 [Example 58, dipropan-2-yl [3-({4-[({2-[methyl(methylsulfonyl)amino]pyridin-3-yl}methyl)amino]-5-(trifluoromethyl)pyrimidin-2-yl}amino)phenyl]phosphonate]	< 1	
		1 to 10	CCCOP(=O)(OCCC)c1ccc(Nc2ncc(C(F)(F)F)c(NCc3cccnc3N(C)S(C)(=O)=O)n2)cc1 [Example 37, dipropyl [4-({4-[({2-[methyl(methylsulfonyl)amino]pyridin-3-yl}methyl)amino]-5-(trifluoromethyl)pyrimidin-2-yl}amino)phenyl]phosphonate]	< 1	

SMILES	IC50 (FAK [1]; [3]) [µM]	IC50 (FAK [1]; [4]) [µM]	IC50 (FAK [1]; [5]) [µM]	IC50 (FAK [2]) [µM]	IC50 (FAK [1]; [6]) [µM]
COP(=O)(Cc1cccc(Nc2ncc(C(F)(F)F)c(NCc3cccnc3N(C)S(C)(=O)=O)n2)c1)OC [Example 56, dimethyl [3-({4-[({2-[methyl(methylsulfonyl)amino]pyridin-3-yl}methyl)amino]-5-(trifluoromethyl)pyrimidin-2-yl}amino)benzyl]phosphonate]	< 1	< 1		< 1	
CCOP(=O)(Cc1ccc(Nc2ncc(C(F)(F)F)c(NCc3cccnc3N(C)S(C)(=O)=O)n2)cc1)c1ccccc1 (stereo not drawn) [Example 50, Ethyl [4-({4-[({2-[methyl(methylsulfonyl)amino]pyridin-3-yl}methyl)amino]-5-(trifluoromethyl)pyrimidin-2-yl}amino)benzyl]phenylphosphinate]			1 to 10	< 1	
CCOP(C)(=O)Cc1ccc(Nc2ncc(C(F)(F)F)c(Nc3ccc(-c4cnn(C[C@@H](O)CO)c4)c4c3C(=O)N(C)C4)n2)cc1 (stereo partly drawn) [Example 65, Ethyl [4-({4-[(7-{1-[(2R)-2,3-dihydroxypropyl]-1H-pyrazol-4-yl}-2-methyl-3-oxo-2,3-dihydro-1H-isoindol-4-yl)amino]-5-(trifluoromethyl)pyrimidin-2-yl}amino)benzyl]methylphosphinate]	< 1	< 1		< 1	
CCOP(C)(=O)Cc1ccc(Nc2ncc(C(F)(F)F)c(Nc3ccc(-c4ccccc4)c4c3C(=O)N(C)C4)n2)cc1 (stereo not drawn) [Example 66, Ethyl methyl[4-({4-[(2-methyl-3-oxo-7-phenyl-2,3-dihydro-1H-isoindol-4-yl)amino]-5-(trifluoromethyl)pyrimidin-2-yl}amino)benzyl]phosphinate]			< 1	< 1	
